Structures can show the parent of a compound that is named as a salt.
Legend:
[1] = system: phenyl-para-quinone writhing; assay: phenyl-para-quinone writhing assay in mice (analgesia); type: in vivo; settings: s.c.
Excerpt: The compounds of the present invention are useful as analgesic agents. […] Exptl. Biol. Med., 95,729 (1957)].

[2] = system: ear edema induced by topical application of TPA (phorbol 12-myristate acetate); assay: TPA-Induced Ear Edema (TPAEE); type: in vivo, Female Swiss Webster mice; settings: mice
Experimental: The purpose of this assay was to determine the ability of a topically-applied compound to prevent ear edema induced by topical application of TPA (phorbol 12-myristate acetate). Female Swiss Webster mice topically received TPA (10 μg/ear) on the right ear and vehicle on the left ear. The test compound (10 μg/ear) was applied to both ears. After five hours, the animals were sacrificed and an ear punch (4 mm) was taken from each ear. The difference in right and left ear punch weights for each animal was determined to assess activity. […] See Young, J. M. et al., J. Invest. Dermatol., 80 (1983), pp. 48-52.

`NN=C(c1cnccc1N)c1ccccc1F` [(4-Amino-3-pyridinyl)-2-fluorophenylmethanone hydrazone dihydrochloride] was tested, and the “% Inhibition of Writhing” value ([1]; 20 mg/kg of body wt.) was 74%.

With `CC(C)(C)C(=O)Nc1ccncc1-c1n[nH]c2ccccc12` [N-[3-(1H-Indazol-3-yl)-4-pyridinyl]-2,2-dimethylpropanamide] the “TPAEE (difference in right and left ear punch weights)” value ([2]; 10 μg/ear, both ears, five hours, TPA 10 μg/ear on right ear) was -31%.

`CCC(=O)O[C@](Cc1ccccc1)(c1ccccc1)[C@H](C)CN(C)C` [Propoxyphene, reference compound] was tested, and the “% Inhibition of Writhing” value ([1]; 3.9 mg/kg of body wt., standard) was 50%.

With `CC(C)(C)C(=O)Nc1ccncc1C(=NN)c1ccccc1F` [[4-(2,2-Dimethylpropionamido)-3-pyridinyl]-2-fluorophenylmethanonehydrazonemaleate] the “% Inhibition of Writhing” value ([1]; 20 mg/kg of body wt.) was 60%.

`C[C@]12CCC(=O)C=C1CC[C@@H]1[C@@H]2[C@@H](O)C[C@@]2(C)[C@H]1CC[C@]2(O)C(=O)CO` [hydrocortisone, reference compound] showed an ED50 ([2]; standard, TPA-induced ear edema) of 47 μg/ear.
